The record followed here is ChEMBL document CHEMBL1149241 (J Med Chem, 2004).

For the experiment, the target named is Beta-secretase 1 (Homo sapiens, UniProt P56817). The experiment in a line: Inhibition of BACE1 by electrochemiluminescence assay.
Chain of Beta-secretase 1 (P56817 whole entry): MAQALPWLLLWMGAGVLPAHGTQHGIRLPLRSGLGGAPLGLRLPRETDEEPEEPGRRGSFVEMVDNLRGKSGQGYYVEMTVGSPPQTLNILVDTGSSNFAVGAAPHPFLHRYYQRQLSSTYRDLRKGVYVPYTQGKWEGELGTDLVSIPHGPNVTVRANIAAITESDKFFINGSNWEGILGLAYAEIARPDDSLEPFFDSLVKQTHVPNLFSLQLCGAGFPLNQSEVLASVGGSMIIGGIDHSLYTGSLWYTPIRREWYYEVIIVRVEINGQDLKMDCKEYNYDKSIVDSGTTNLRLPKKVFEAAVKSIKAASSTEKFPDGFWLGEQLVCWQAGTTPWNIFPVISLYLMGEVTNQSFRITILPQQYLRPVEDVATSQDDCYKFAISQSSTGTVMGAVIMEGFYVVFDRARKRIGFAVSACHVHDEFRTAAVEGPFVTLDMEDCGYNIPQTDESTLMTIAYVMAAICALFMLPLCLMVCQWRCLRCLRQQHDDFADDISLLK
As to `C[C@@H](NC(=O)c1cc(OCC(=O)NCCCCCN)cc(-c2ccccc2C#N)c1)c1ccccc1`, the IC50 (commonly the concentration that inhibits the measured activity by half) was 21 µM. Next, `CC(NC(=O)c1cc(OCC(=O)NCCCCCN)cc(OS(=O)(=O)Cc2ccccc2)c1)c1ccccc1` (single isomer, unassigned): more than 100 µM; `C[C@@H](NC(=O)c1cc(OCC(=O)NCCCCCN)cc(OS(=O)(=O)Cc2ccccc2)c1)c1ccccc1`: 3.4 µM.
